Laboratory results published in ChEMBL document CHEMBL3885881, “DrugMatrix”.

Species on record: Rattus norvegicus
Test: DrugMatrix - Regimen: Daily Repeat
Assay type: toxicity, organism-based, Sprague-Dawley
Set-up: regimen Daily Repeat, gender Male, age 6-8 weeks
Settings: in vivo, po, route oral GAVAGE, vehicle 100 % WATER; for ABSOLUTE BASOPHIL / ABSOLUTE EOSINOPHIL / ABSOLUTE LYMPHOCYTE / ABSOLUTE MONOCYTE / ABSOLUTE SEGMENTED NEUTROPHIL / BASOPHIL / EOSINOPHIL / ERYTHROCYTE COUNT / HEMATOCRIT / HEMOGLOBIN / LEUKOCYTE COUNT / LYMPHOCYTE / MEAN CORPUSCULAR HEMOGLOBIN / MEAN CORPUSCULAR HEMOGLOBIN CONCENTRATION / MEAN CORPUSCULAR VOLUME / MONOCYTE / NEUTROPHIL / NUCLEATED RED BLOOD CELLS / PLATELET COUNT: tissue Blood; for ALANINE AMINOTRANSFERASE / ALBUMIN / ALKALINE PHOSPHATASE / ASPARTATE AMINOTRANSFERASE / BLOOD UREA NITROGEN / CARBON DIOXIDE / CHLORIDE / CHOLESTEROL / CREATINE PHOSPHOKINASE / CREATININE / GLUCOSE / LACTATE DEHYDROGENASE / LIPASE / PHOSPHORUS / POTASSIUM / SODIUM / TOTAL BILIRUBIN / TOTAL PROTEIN / URIC ACID: tissue Plasma
[1] = 100 mg/kg, 120 h, dose level Low, time 5 day
[2] = 852 mg/kg, 72 h, dose level High, time 3 day
[3] = 852 mg/kg, 120 h, dose level High, time 5 day

For `CC(C)(S)[C@@H](N)C(=O)O` [PENICILLAMINE], the “ABSOLUTE BASOPHIL” value [1] was 0 CELLS/uL, the “ABSOLUTE EOSINOPHIL” value [1] was 0 CELLS/uL and the “ABSOLUTE LYMPHOCYTE” value [1] was 6617.67 CELLS/uL. For the same compound, the “ABSOLUTE MONOCYTE” value [1] was 110.33 CELLS/uL, the “ABSOLUTE SEGMENTED NEUTROPHIL” value [1] was 338.67 CELLS/uL and the BASOPHIL [1] was 0%. The EOSINOPHIL [1] was 0%, the “ERYTHROCYTE COUNT” value [1] was 5.47 x10E6/uL and the HEMATOCRIT [1] was 34.93%. The HEMOGLOBIN [1] was 13.8 G/DL, the “LEUKOCYTE COUNT” value [1] was 7.07 x10E3/uL and the LYMPHOCYTE [1] was 93.33%. The “MEAN CORPUSCULAR HEMOGLOBIN” value [1] was 25.27 pg, the “MEAN CORPUSCULAR HEMOGLOBIN CONCENTRATION” value [1] was 39.57 G/DL and the “MEAN CORPUSCULAR VOLUME” value [1] was 63.93 fL. The MONOCYTE [1] was 1.67%, the NEUTROPHIL [1] was 5% and the “NUCLEATED RED BLOOD CELLS” value [1] was 0 /100WBC. The “PLATELET COUNT” value [1] was 1075.33 x10E3/uL, the “ALANINE AMINOTRANSFERASE” value [1] was 51.33 u/L and the ALBUMIN [1] was 4.07 G/DL. The “ALKALINE PHOSPHATASE” value [1] was 310.33 u/L, the “ASPARTATE AMINOTRANSFERASE” value [1] was 74.33 u/L and the “BLOOD UREA NITROGEN” value [1] was 13.67 mg/dL. The “CARBON DIOXIDE” value [1] was 34 mmol/L, the CHLORIDE [1] was 99.67 MEQ/L and the CHOLESTEROL [1] was 68.67 mg/dL. The “CREATINE PHOSPHOKINASE” value [1] was 197.67 u/L, the CREATININE [1] was 0.13 mg/dL and the GLUCOSE [1] was 152.67 mg/dL. The “LACTATE DEHYDROGENASE” value [1] was 129 u/L, the LIPASE [1] was 9.67 u/L and the PHOSPHORUS [1] was 10.77 mg/dL. The POTASSIUM [1] was 6.13 MEQ/L, the SODIUM [1] was 144.33 MEQ/L and the “TOTAL BILIRUBIN” value [1] was 0.17 mg/dL. The “TOTAL PROTEIN” value [1] was 5.83 G/DL, the “URIC ACID” value [1] was 1.17 mg/dL and the “ABSOLUTE BASOPHIL” value [2] was 0 CELLS/uL. The “ABSOLUTE EOSINOPHIL” value [2] was 0 CELLS/uL, the “ABSOLUTE LYMPHOCYTE” value [2] was 6326 CELLS/uL and the “ABSOLUTE MONOCYTE” value [2] was 89.33 CELLS/uL. The “ABSOLUTE SEGMENTED NEUTROPHIL” value [2] was 351.33 CELLS/uL, the BASOPHIL [2] was 0% and the EOSINOPHIL [2] was 0%. For the same compound, the “ERYTHROCYTE COUNT” value [2] was 5.64 x10E6/uL, the HEMATOCRIT [2] was 34.8% and the HEMOGLOBIN [2] was 13.1 G/DL. For the same compound, the “LEUKOCYTE COUNT” value [2] was 6.77 x10E3/uL, the LYMPHOCYTE [2] was 93.67% and the “MEAN CORPUSCULAR HEMOGLOBIN” value [2] was 23.23 pg. The “MEAN CORPUSCULAR HEMOGLOBIN CONCENTRATION” value [2] was 37.67 G/DL, the “MEAN CORPUSCULAR VOLUME” value [2] was 61.73 fL and the MONOCYTE [2] was 1.33%. The NEUTROPHIL [2] was 5%, the “NUCLEATED RED BLOOD CELLS” value [2] was 0 /100WBC and the “PLATELET COUNT” value [2] was 1143.33 x10E3/uL. For the same compound, the “ALANINE AMINOTRANSFERASE” value [2] was 54.33 u/L, the ALBUMIN [2] was 4.2 G/DL and the “ALKALINE PHOSPHATASE” value [2] was 349 u/L. For the same compound, the “ASPARTATE AMINOTRANSFERASE” value [2] was 71.33 u/L, the “BLOOD UREA NITROGEN” value [2] was 14 mg/dL and the “CARBON DIOXIDE” value [2] was 30.33 mmol/L. The CHLORIDE [2] was 102.67 MEQ/L, the CHOLESTEROL [2] was 88.33 mg/dL and the “CREATINE PHOSPHOKINASE” value [2] was 242 u/L. For the same compound, the CREATININE [2] was 0.12 mg/dL, the GLUCOSE [2] was 145.67 mg/dL and the “LACTATE DEHYDROGENASE” value [2] was 117.67 u/L. The LIPASE [2] was 10 u/L, the PHOSPHORUS [2] was 9.27 mg/dL and the POTASSIUM [2] was 5.88 MEQ/L. For the same compound, the SODIUM [2] was 147.53 MEQ/L, the “TOTAL BILIRUBIN” value [2] was 0.17 mg/dL and the “TOTAL PROTEIN” value [2] was 6.2 G/DL. For the same compound, the “URIC ACID” value [2] was 0.87 mg/dL, the “ABSOLUTE BASOPHIL” value [3] was 0 CELLS/uL and the “ABSOLUTE EOSINOPHIL” value [3] was 0 CELLS/uL. For the same compound, the “ABSOLUTE LYMPHOCYTE” value [3] was 6605.67 CELLS/uL, the “ABSOLUTE MONOCYTE” value [3] was 23.67 CELLS/uL and the “ABSOLUTE SEGMENTED NEUTROPHIL” value [3] was 604 CELLS/uL. The BASOPHIL [3] was 0%, the EOSINOPHIL [3] was 0% and the “ERYTHROCYTE COUNT” value [3] was 5.48 x10E6/uL. For the same compound, the HEMATOCRIT [3] was 33.73%, the HEMOGLOBIN [3] was 13.27 G/DL and the “LEUKOCYTE COUNT” value [3] was 7.23 x10E3/uL. For the same compound, the LYMPHOCYTE [3] was 91.33%, the “MEAN CORPUSCULAR HEMOGLOBIN” value [3] was 24.23 pg and the “MEAN CORPUSCULAR HEMOGLOBIN CONCENTRATION” value [3] was 39.33 G/DL. The “MEAN CORPUSCULAR VOLUME” value [3] was 61.63 fL, the MONOCYTE [3] was 0.33% and the NEUTROPHIL [3] was 8.33%. The “NUCLEATED RED BLOOD CELLS” value [3] was 0 /100WBC, the “PLATELET COUNT” value [3] was 1213.67 x10E3/uL and the “ALANINE AMINOTRANSFERASE” value [3] was 35 u/L. For the same compound, the ALBUMIN [3] was 4.23 G/DL, the “ALKALINE PHOSPHATASE” value [3] was 283.33 u/L and the “ASPARTATE AMINOTRANSFERASE” value [3] was 59.33 u/L. The “BLOOD UREA NITROGEN” value [3] was 13.33 mg/dL, the “CARBON DIOXIDE” value [3] was 33.33 mmol/L and the CHLORIDE [3] was 99.67 MEQ/L. The CHOLESTEROL [3] was 61.33 mg/dL, the “CREATINE PHOSPHOKINASE” value [3] was 202.33 u/L and the CREATININE [3] was 0.12 mg/dL. The GLUCOSE [3] was 131.67 mg/dL, the “LACTATE DEHYDROGENASE” value [3] was 133 u/L and the LIPASE [3] was 9.67 u/L. The PHOSPHORUS [3] was 10.7 mg/dL, the POTASSIUM [3] was 6.12 MEQ/L and the SODIUM [3] was 144.2 MEQ/L. The “TOTAL BILIRUBIN” value [3] was 0.2 mg/dL, the “TOTAL PROTEIN” value [3] was 6.07 G/DL and the “URIC ACID” value [3] was 1.23 mg/dL.
